Target: T1, human S1P1 receptor (Homo sapiens, UniProt P21453)
T1 construct: expressed in transfected cells; host or cells: CHO-K1 (ATCC CCL 61); RH7777 may also be used
Assay: 35S-GTPγS binding assay (Test 1), S1P1
Assay type: biochemical
Settings: membrane protein of transfected CHO cells, SPA
Procedure: (§1) Test 1: ^35S-GTPγS Binding Assay
(§2) The S1P receptor modulating properties of an agent of the invention are tested on the human S1P1, S1P2, S1P3, S1P4 and S1P5, respectively, receptor subtypes. The functional receptor activation is assessed by quantifying the compound-induced ^35S-GTPγS binding to membrane protein prepared from transfected heterologous cells stably expressing the appropriate S1P receptor subtype. CHO cells (CHO-K1, Chinese hamster, ATCC no. CCL 61) are used [RH7777 cells (rat Morris hepatoma, ATCC no. CRL 1601) may also be used]. The membrane protein is prepared from wild-type cells and from different cell clones expressing the appropriate S1P receptor subtype. The assay technology used is SPA (scintillation proximity based assay). A DMSO solution of the test compound is serially diluted and added to SPA-bead (Amersham-Pharmacia) immobilised S1P receptor subtype expressing membrane protein (1 to 20 μg/well) in the presence of 50 mM HEPES, 100 mM NaCl, 10 mM MgCl2, 10 μM GDP, 0.1% fat free BSA and 0.2 nM ^35S-GTPγS (1200 Ci/mmol) (pH 7.4). After incubation in 96 well microtiter plates at room temperature for 120 minutes, the unbound ^35S-GTPγS is separated by centrifugation. The luminescence of SPA beads triggered by membrane bound ^35S-GTPγS is quantified with a TOPcount plate reader (Packard). To evaluate the S1P receptor modulation, the stimulation (in %) compared to the baseline is calculated as the binding in the presence of the compound divided by the binding in the absence of a ligand, multiplied by 100. Dose response curves are plotted using a non-linear regression curve fitting program, and the EC50 is defined as the concentration of the compound required to give 50% of its maximum stimulation. Preferably, the EC50 value of an agent of the invention in this test is 10′000 nM or less. The selectivity of the compound towards the S1P receptor subtypes is determined by measuring for each of the different S1P receptor subtypes the level of ^35S-GTPγS binding in the presence of the compound using each of the different membrane proteins.

T1 sequence (P21453 whole entry): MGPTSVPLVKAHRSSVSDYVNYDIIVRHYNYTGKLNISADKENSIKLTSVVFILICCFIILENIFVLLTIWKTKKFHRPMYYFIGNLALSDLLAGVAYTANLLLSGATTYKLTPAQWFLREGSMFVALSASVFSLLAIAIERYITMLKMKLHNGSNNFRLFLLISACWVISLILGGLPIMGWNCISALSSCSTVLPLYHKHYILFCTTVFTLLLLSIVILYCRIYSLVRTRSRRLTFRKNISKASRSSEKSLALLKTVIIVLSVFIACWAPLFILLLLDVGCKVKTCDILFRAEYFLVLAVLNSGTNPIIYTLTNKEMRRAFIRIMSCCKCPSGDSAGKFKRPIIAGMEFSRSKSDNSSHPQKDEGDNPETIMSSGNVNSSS

efficacy, receptor subtype S1P1 [%] | Compound
85 | CCCn1nccc1-c1ccc(Nc2c(C)cc(C)cc2C)c(C(N)=O)c1 [Example 27, 5-(2-Propyl-2H-pyrazol-3-yl)-2-(2,4,6-trimethyl-phenylamino)-benzamide]
87 | COc1ccc(Nc2c(C)cc(C)cc2C)c(C(N)=O)c1 [Example 36, 5-Methoxy-2-(2,4,6-trimethyl-phenylamino)-benzamide]
93 | Cc1cc(C)c(Nc2ccc(Cl)cc2C(N)=O)c(C)c1 [Example 37, 5-Chloro-2-(2,4,6-trimethyl-phenylamino)-benzamide]

Same assay, conditions: membrane protein of transfected CHO cells, SPA; read-out: EC50, receptor subtype S1P1

EC50 [nM] | Compound
495 | CCCn1nccc1-c1ccc(Nc2c(C)cc(C)cc2C)c(C(N)=O)c1 [Example 27, 5-(2-Propyl-2H-pyrazol-3-yl)-2-(2,4,6-trimethyl-phenylamino)-benzamide]
305 | COc1ccc(Nc2c(C)cc(C)cc2C)c(C(N)=O)c1 [Example 36, 5-Methoxy-2-(2,4,6-trimethyl-phenylamino)-benzamide]
150 | Cc1cc(C)c(Nc2ccc(Cl)cc2C(N)=O)c(C)c1 [Example 37, 5-Chloro-2-(2,4,6-trimethyl-phenylamino)-benzamide]

Target: T2, human S1P5 receptor (Homo sapiens, UniProt Q9H228)
T2 construct: expressed in transfected cells; host or cells: CHO-K1 (ATCC CCL 61); RH7777 may also be used
T2 sequence (Q9H228 whole entry): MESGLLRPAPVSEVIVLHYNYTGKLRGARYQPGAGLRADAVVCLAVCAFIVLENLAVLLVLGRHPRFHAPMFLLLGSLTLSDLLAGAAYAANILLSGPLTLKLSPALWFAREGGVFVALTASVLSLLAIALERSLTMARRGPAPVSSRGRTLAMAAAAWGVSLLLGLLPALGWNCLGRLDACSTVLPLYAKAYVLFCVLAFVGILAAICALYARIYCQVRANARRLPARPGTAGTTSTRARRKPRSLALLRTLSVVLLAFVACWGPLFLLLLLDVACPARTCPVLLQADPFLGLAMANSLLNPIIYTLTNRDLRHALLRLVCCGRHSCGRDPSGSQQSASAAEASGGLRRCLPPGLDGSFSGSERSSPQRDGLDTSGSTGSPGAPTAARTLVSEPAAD
Assay: 35S-GTPγS binding assay (Test 1), S1P5
Assay type: biochemical
Settings: membrane protein of transfected CHO cells, SPA
Procedure: as §1, §2

efficacy, receptor subtype S1P5 [%] | Compound
93 | CCCn1nccc1-c1ccc(Nc2c(C)cc(C)cc2C)c(C(N)=O)c1 [Example 27, 5-(2-Propyl-2H-pyrazol-3-yl)-2-(2,4,6-trimethyl-phenylamino)-benzamide]
64 | COc1ccc(Nc2c(C)cc(C)cc2C)c(C(N)=O)c1 [Example 36, 5-Methoxy-2-(2,4,6-trimethyl-phenylamino)-benzamide]
66 | Cc1cc(C)c(Nc2ccc(Cl)cc2C(N)=O)c(C)c1 [Example 37, 5-Chloro-2-(2,4,6-trimethyl-phenylamino)-benzamide]

Same assay, conditions: membrane protein of transfected CHO cells, SPA; read-out: EC50, receptor subtype S1P5

EC50 [nM] | Compound
25 | CCCn1nccc1-c1ccc(Nc2c(C)cc(C)cc2C)c(C(N)=O)c1 [Example 27, 5-(2-Propyl-2H-pyrazol-3-yl)-2-(2,4,6-trimethyl-phenylamino)-benzamide]
80 | COc1ccc(Nc2c(C)cc(C)cc2C)c(C(N)=O)c1 [Example 36, 5-Methoxy-2-(2,4,6-trimethyl-phenylamino)-benzamide]
90 | Cc1cc(C)c(Nc2ccc(Cl)cc2C(N)=O)c(C)c1 [Example 37, 5-Chloro-2-(2,4,6-trimethyl-phenylamino)-benzamide]

Target: T3, human S1P4 receptor (Homo sapiens, UniProt O95977)
T3 construct: expressed in transfected cells; host or cells: CHO-K1 (ATCC CCL 61); RH7777 may also be used
T3 sequence (O95977 1-384): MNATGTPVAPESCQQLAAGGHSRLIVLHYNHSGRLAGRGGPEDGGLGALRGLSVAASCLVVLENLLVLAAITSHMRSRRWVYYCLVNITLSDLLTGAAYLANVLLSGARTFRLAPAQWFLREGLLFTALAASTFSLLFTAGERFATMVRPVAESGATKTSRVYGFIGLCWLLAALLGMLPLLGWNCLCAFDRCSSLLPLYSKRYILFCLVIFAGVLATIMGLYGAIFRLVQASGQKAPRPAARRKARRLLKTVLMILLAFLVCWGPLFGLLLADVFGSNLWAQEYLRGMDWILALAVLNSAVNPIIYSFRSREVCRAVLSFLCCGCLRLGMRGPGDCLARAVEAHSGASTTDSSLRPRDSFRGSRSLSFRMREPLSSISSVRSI
Assay: 35S-GTPγS binding assay (Test 1), S1P4
Assay type: biochemical
Settings: membrane protein of transfected CHO cells, SPA
Procedure: as §1, §2

efficacy, receptor subtype S1P4 [%] | Compound
130 | CCCn1nccc1-c1ccc(Nc2c(C)cc(C)cc2C)c(C(N)=O)c1 [Example 27, 5-(2-Propyl-2H-pyrazol-3-yl)-2-(2,4,6-trimethyl-phenylamino)-benzamide]
126 | COc1ccc(Nc2c(C)cc(C)cc2C)c(C(N)=O)c1 [Example 36, 5-Methoxy-2-(2,4,6-trimethyl-phenylamino)-benzamide]
109 | Cc1cc(C)c(Nc2ccc(Cl)cc2C(N)=O)c(C)c1 [Example 37, 5-Chloro-2-(2,4,6-trimethyl-phenylamino)-benzamide]

Same assay, conditions: membrane protein of transfected CHO cells, SPA; read-out: EC50, receptor subtype S1P4

EC50 [nM] | Compound
106 | CCCn1nccc1-c1ccc(Nc2c(C)cc(C)cc2C)c(C(N)=O)c1 [Example 27, 5-(2-Propyl-2H-pyrazol-3-yl)-2-(2,4,6-trimethyl-phenylamino)-benzamide]
210 | COc1ccc(Nc2c(C)cc(C)cc2C)c(C(N)=O)c1 [Example 36, 5-Methoxy-2-(2,4,6-trimethyl-phenylamino)-benzamide]
160 | Cc1cc(C)c(Nc2ccc(Cl)cc2C(N)=O)c(C)c1 [Example 37, 5-Chloro-2-(2,4,6-trimethyl-phenylamino)-benzamide]
